Active and inactive are the calls of the source. The rule behind the calls is not given here.
Key:
[1] = system: HepG2; experiment: Cytotoxicity against human HepG2 cells assessed as growth inhibition at 10^-5 M after 48 hrs by MTT assay; type: functional; conditions: HepG2, 48 h, read-out: GI
[2] = system: MCF7; experiment: Decrease of p53 and KRT19 mRNA expression in human ER positive MCF7 cells by RT-PCR analysis relative to control; type: functional, cell-based
[3] = system: MCF7; experiment: Decrease of BRAC1 mRNA expression in human ER positive MCF7 cells by RT-PCR analysis relative to control; type: functional, cell-based
[4] = system: MDA-MB-231; experiment: Decrease of BRAC1 mRNA expression in human ER negative MDA-MB-231 cells by RT-PCR analysis relative to control; type: functional
[5] = system: MCF7; experiment: Increase of CD44 mRNA expression in human ER positive MCF7 cells by RT-PCR analysis relative to control; type: functional
[6] = system: MDA-MB-231; experiment: Decrease of CD44 mRNA expression in human ER negative MDA-MB-231 cells by RT-PCR analysis relative to control; type: functional, cell-based
[7] = system: MDA-MB-231; experiment: Reduction of BAX mRNA expression in human ER negative MDA-MB-231 cells by RT-PCR analysis relative to control; type: functional, cell-based
[8] = system: MCF7; experiment: Reduction of BAX mRNA expression in human ER positive MCF7 cells by RT-PCR analysis relative to control; type: functional

SMILES | inhibition of growth at 10 µM [1] [%] | Activity [2] | Activity [3] | fold change (FC) [4] | Activity [5] | Activity [6] | Activity [7] | fold change (FC) [8] | fold change (FC) [5]
CCOc1ccc(/C=N/NC(=O)Cn2nnnc2-c2ccc3c(c2)OCO3)cc1 | 0 | – | – | – | – | – | – | – | –
O=C(Cn1nnnc1-c1ccc2c(c1)OCO2)N/N=C/c1ccccc1 | 0 | – | – | – | – | – | – | – | –
Cc1ccc(/C=N/NC(=O)Cn2nnnc2-c2ccc3c(c2)OCO3)cc1 | 0 | – | – | – | – | – | – | – | –
O=C(Cn1nnnc1-c1ccc2c(c1)OCO2)N/N=C/c1cccc([N+](=O)[O-])c1 | 0 | Active | Active | 2 | Active | Active | Active | >2 | –
O=C(Cn1nnnc1-c1ccc2c(c1)OCO2)N/N=C/c1cccs1 | 0 | – | – | – | – | – | – | – | –
CCc1ccc(/C=N/NC(=O)Cn2nnnc2-c2ccc3c(c2)OCO3)cc1 | 0 | – | – | – | – | – | – | – | –
COc1ccc(/C=N/NC(=O)Cn2nnnc2-c2ccc3c(c2)OCO3)c(OC)c1 | 0 | Active | Active | 2 | – | Active | Active | >2 | 2
O=C(Cn1nnnc1-c1ccc2c(c1)OCO2)N/N=C/c1ccc(Cl)cc1 | 0 | – | – | – | – | – | – | – | –
O=C(Cn1nnnc1-c1ccc2c(c1)OCO2)N/N=C/c1ccccc1[N+](=O)[O-] | 0 | Active | Active | 2 | – | Active | Active | >2 | 2
CCOc1ccccc1/C=N/NC(=O)Cn1nnnc1-c1ccc2c(c1)OCO2 | 0 | – | – | – | – | – | – | – | –
O=C(Cn1nnnc1-c1ccc2c(c1)OCO2)N/N=C/c1ccccc1Cl | 0 | Active | Active | 2 | Active | Active | Active | >2 | –
O=C(Cn1nnnc1-c1ccc2c(c1)OCO2)N/N=C/c1ccco1 | 0 | – | – | – | – | – | – | – | –
COc1ccc(/C=N/NC(=O)Cn2nnnc2-c2ccc3c(c2)OCO3)cc1 | 0 | – | – | – | – | – | – | – | –
O=C(Cn1nnnc1-c1ccc2c(c1)OCO2)N/N=C/c1ccc([N+](=O)[O-])cc1 | 0 | Active | Active | 2 | Active | Active | Active | >2 | –
